Measurements as given in patent US9364479B2, “Use of a receptor-type kinase modulator for treating polycystic kidney disease” (SYMPHONY EVOLUTION, INC., priority 2010, dated 2016).
Like-named read-outs stand apart in the source and are kept apart here.

Columns and labels:
[1] = test system: Muscarinic, Non-selective, Peripheral; assay: NovaScreen assay; assay type: binding
Melatonin, Non-selective = assay: NovaScreen assay; assay type: binding
[2] = molecular target: T1, Choline Acetyltransferase (Homo sapiens, UniProt P28329); assay: NovaScreen assay; assay type: biochemical; details: read-out: Inhibition, 10 μM XL-647
T1 construct: NovaScreen

[3] = test system: H1975 human tumor xenograft; assay: H1975 xenograft, tumor growth; assay type: in vivo; details: Mus musculus, NCI-H1975; qd × 14
Method: Before treatment, H1975, A431, or MDA-MB-231 cells were harvested from exponentially growing cultures, detached by brief trypsinization, washed twice in cold HBSS, resuspended in ice-cold HBSS, and implanted either s.c. (H1975, 3×10^6 cells per mouse) or i.d. (A431, 1×10^6 cells per mouse) into the dorsal hind flank or s.c. into the mammary fat pad (MDA-MB-231, 1×10^6 cells per mouse). Palpable tumors were measured by caliper twice weekly until the mean tumor weight was in the range of ˜80 to 120 mg. Tumor weight was determined by measuring perpendicular diameters with a caliper and multiplying the measurements of diameters in two dimensions: tumor volume (mm^3)/2=length (mm)×width (mm^2)/2. […] The mean tumor weight of each animal in the respective control and treatment groups was determined twice weekly during the dosing periods. […]
The response of tumors to treatment was determined by comparing the mean tumor weight of the treatment group with the appropriate control group. Percentage inhibition of tumor growth was determined with the following formula: Percentage inhibition=100×[1−(Xf−Xo)/(Yf−Yo)], where Xf and Yf are the mean tumor weights of the treatment and control groups, respectively, on day f, and Xo and Yo are the mean tumor weights of treatment and control groups respectively, on day zero (staged tumor weights after grouping)

EGFR = molecular target: T2, EGFR (Homo sapiens, UniProt P00533); assay: Luciferase-coupled chemiluminescence kinase assay; assay type: biochemical; details: ATP at Km
T2 construct: residues H672-A1210 of human EGFR, Proqinase; purchased Proqinase
Method: Dose-response experiments were done using 10 different inhibitor concentrations in 384-well microtiter plates. The ATP concentration used for each assay was equivalent to the Km for each kinase.
A Luciferase-coupled chemiluminescence assay was used to measure EGFR and KDR (VEGFR2) activity. Kinase activity was measured as the percentage of ATP consumed following the kinase reaction using luciferase-luciferin-coupled chemiluminescence. Reactions were conducted in 384-well white, medium-binding microtiter plates (Greiner). […] The reaction mixture was incubated at room temperature for 4 h. Following the kinase reaction, a 20 μL aliquot of Kinase Glo (Promega) was added and luminescence signal was measured using a Victor2 plate reader (Perkin-Elmer). Total ATP consumption was limited to 50%.

bpk mice = test system: bpk mice
Description: The BPK model of ARPKD retains the same altered location of EGFR that is seen in murine and human ADPKD. This model is therefore widely accepted as a general means for affecting the EGFR abnormality in PKD, both ARPKD and ADPKD. The BPK model arose as a spontaneous mutation in an inbred colony of BALB/c mice. Homozygous bpk mice develop massively enlarged kidneys and die of renal failure at an average postnatal age of 24 days (PN-24). […] Extra renal manifestations include biliary proliferation and ductal ectasia. Because of the recessive nature of the disease, wild type +/+ and heterozygous bpk/+ mice are phenotypically normal. The primary measurement used in these studies is a comparison of the kidney weight to body weight ratio (KW/BW). […] Additional measurements include assessment of renal function (BUN, creatinine and MUCA) and histological evaluation of kidney size and collecting tubules-cystic index (CT-CI).
These animals were housed in Medical College of Wisconsin vivarium facilities. All animal experiments were conducted in accordance with policies of the NIH Guide for the Care and Use of Laboratory Animals and the Institutional Animal Care and Use Committee of the Medical College of Wisconsin.
Animals were treated from PN-7 through PN-21 and evaluated for extent of disease. The identity of […] animals can be readily determined post-mortem by the presence of greatly enlarged kidneys. On PN-21, the study was terminated and animals were sacrificed. The mass of each animal was determined. Both kidneys from each animal were excised and weighed. The kidney weight to body weight ratio (KW/BW) was determined by the following formula: KW/BW=[mass of both kidneys]/[mass of animal].
In addition, renal cystic index (CI) was calculated. Lectins specific to the proximal tubules (PTs) (lotus tetragonolobus [LTA]) and collecting tubules (CTs) (Dolichos biflorus agglutins [DBA]) were stained and used to assess severity of cystic dilations on a scale from 0-5. Renal function was assessed by obtaining BUN and creatinine levels via cardiac puncture. MUCA was measured after keeping the animals without water for 12 hrs.

Histamine, H3 = molecular target: T3, Histamine, H3 (Homo sapiens, UniProt Q9Y5N1); assay: NovaScreen assay; assay type: binding; details: read-out: Inhibition, 10 μM XL-647
T3 construct: NovaScreen

[4] = test system: subjects with non-small-cell lung cancer; assay: Clinical Study XL-647-201 (Phase 2, NSCLC front-line); assay type: in vivo, human; details: Intermittent 5&9 schedule
Description: Study XL-647-201: Subjects with non-small-cell lung cancer (NSCLC) (n=52) of adenomacarcinoma histology, Stage IIIB, with malignant pleural effusion, or Stage IV previously untreated for metastatic disease were enrolled. Subjects were selected for clinical characteristics predictive of response to EGFR inhibitors (Asian, female, and/or minimal and remote smoking history).

Galanin, Non-Selective = assay: NovaScreen assay; assay type: binding
p-Y-HER2/ErbB2 = molecular target: T4, p-Y-HER2/ErbB2 (Homo sapiens, UniProt P04626); assay: In vivo receptor phosphorylation, BT474 xenografts; design: species or system mouse; details: Phospho
T4 construct: endogenous in cells; host or cells: BT474 tumour xenografts in mice (per the earlier reading)

[5] = molecular target: T5, GABA A, BDZ, alpha 1, Central (Homo sapiens, UniProt P14867+P18507); assay: NovaScreen assay; assay type: binding; details: read-out: Inhibition, 10 μM XL-647
T5 construct: NovaScreen

Serotonin, Non-selective = assay: NovaScreen assay; assay type: binding
[6] = 7.5 mg/kg/day, PN Day 21, 7.5 mg/kg/day
[7] = 7.5 mg/kg/day, PN Day 21, listed as PRIM-001, 7.5 mg/kg/day

T4 sequence (P04626 23-1255): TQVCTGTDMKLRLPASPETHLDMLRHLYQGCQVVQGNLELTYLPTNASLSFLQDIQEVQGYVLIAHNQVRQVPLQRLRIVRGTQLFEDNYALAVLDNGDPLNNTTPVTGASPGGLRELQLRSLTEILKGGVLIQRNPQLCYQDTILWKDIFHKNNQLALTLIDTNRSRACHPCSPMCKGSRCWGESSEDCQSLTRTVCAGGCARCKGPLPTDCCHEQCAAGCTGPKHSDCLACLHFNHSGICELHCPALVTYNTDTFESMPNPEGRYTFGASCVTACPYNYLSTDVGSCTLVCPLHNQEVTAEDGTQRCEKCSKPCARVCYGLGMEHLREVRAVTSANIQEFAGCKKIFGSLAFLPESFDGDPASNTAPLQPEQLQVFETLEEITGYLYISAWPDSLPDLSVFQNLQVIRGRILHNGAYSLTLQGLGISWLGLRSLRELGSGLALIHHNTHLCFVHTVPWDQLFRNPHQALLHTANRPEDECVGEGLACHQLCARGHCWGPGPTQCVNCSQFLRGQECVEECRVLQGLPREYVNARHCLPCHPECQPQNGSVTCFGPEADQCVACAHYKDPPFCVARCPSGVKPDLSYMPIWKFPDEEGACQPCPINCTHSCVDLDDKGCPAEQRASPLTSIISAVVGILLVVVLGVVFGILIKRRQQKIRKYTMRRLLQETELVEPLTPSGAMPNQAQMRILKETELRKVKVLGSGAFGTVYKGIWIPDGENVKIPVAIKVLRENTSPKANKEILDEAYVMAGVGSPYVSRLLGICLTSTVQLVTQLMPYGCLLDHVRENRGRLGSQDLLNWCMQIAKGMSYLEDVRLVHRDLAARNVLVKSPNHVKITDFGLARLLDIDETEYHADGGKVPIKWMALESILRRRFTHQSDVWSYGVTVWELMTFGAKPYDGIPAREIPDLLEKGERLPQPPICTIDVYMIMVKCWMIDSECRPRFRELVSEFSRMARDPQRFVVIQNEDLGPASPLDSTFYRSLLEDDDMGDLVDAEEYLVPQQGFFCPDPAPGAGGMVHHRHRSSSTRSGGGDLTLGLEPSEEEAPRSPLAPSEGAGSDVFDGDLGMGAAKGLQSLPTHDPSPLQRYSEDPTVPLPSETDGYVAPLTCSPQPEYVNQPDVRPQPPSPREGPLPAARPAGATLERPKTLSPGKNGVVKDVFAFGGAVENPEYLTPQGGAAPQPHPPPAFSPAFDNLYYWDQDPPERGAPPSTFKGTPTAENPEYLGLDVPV
T1 sequence (P28329 whole entry): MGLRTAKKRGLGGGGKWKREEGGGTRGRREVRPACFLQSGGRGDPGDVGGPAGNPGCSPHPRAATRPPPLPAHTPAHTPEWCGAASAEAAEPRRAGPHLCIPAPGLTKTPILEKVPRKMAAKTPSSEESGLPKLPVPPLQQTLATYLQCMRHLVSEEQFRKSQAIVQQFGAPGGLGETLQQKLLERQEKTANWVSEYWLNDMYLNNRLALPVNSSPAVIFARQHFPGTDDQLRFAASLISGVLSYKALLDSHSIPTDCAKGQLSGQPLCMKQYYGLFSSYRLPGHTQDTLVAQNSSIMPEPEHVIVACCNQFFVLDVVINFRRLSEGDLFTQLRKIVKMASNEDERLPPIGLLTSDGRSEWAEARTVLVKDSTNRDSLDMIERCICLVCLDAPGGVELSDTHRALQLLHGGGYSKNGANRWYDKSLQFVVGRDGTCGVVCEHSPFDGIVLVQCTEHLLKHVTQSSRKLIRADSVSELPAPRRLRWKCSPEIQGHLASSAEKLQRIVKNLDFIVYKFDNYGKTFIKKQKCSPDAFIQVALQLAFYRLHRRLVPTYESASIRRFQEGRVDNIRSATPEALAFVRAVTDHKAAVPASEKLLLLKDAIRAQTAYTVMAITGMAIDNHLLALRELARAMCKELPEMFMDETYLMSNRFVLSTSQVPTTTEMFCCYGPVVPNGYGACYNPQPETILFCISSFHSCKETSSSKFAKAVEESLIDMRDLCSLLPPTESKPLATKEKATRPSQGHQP
T2 sequence (P00533 672-1210): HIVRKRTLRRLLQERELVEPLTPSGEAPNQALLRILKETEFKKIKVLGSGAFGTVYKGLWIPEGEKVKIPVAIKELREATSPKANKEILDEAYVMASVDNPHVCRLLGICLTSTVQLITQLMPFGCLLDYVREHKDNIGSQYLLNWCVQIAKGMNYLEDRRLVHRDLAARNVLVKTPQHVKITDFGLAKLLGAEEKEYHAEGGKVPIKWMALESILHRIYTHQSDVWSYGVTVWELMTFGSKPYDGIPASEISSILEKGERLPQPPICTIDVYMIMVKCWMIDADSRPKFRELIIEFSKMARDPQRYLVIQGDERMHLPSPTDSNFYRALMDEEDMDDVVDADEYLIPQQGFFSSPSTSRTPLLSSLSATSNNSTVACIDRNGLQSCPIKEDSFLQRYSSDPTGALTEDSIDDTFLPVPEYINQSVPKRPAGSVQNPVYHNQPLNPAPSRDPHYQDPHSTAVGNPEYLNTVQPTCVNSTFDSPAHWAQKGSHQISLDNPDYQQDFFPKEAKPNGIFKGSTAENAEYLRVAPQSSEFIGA
T5 sequence (P14867 28-456): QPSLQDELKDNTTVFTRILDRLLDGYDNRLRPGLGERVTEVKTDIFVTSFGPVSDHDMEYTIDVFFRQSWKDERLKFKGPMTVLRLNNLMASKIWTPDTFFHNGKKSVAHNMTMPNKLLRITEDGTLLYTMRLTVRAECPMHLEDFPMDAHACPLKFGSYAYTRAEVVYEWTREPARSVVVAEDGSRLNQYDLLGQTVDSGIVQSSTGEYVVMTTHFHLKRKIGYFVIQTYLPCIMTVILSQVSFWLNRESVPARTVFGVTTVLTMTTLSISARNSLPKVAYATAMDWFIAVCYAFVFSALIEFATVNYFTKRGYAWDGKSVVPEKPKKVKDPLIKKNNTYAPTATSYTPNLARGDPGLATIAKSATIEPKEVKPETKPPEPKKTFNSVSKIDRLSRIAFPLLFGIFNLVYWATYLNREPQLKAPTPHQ
T5 sequence (P18507 40-475): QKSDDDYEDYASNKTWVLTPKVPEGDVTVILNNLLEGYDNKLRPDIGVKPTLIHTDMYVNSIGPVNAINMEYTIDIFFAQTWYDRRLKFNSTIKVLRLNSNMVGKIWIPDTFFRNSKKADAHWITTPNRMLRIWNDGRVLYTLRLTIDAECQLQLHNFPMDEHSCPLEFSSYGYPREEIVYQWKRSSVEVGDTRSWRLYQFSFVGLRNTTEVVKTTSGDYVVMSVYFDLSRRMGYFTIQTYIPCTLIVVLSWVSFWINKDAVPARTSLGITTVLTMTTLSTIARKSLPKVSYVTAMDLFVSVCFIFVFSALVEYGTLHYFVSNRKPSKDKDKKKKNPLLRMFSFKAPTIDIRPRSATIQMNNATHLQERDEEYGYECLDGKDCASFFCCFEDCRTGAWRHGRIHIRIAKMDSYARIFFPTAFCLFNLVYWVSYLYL
T5 sequence (P47870 25-512 partner limits assumed): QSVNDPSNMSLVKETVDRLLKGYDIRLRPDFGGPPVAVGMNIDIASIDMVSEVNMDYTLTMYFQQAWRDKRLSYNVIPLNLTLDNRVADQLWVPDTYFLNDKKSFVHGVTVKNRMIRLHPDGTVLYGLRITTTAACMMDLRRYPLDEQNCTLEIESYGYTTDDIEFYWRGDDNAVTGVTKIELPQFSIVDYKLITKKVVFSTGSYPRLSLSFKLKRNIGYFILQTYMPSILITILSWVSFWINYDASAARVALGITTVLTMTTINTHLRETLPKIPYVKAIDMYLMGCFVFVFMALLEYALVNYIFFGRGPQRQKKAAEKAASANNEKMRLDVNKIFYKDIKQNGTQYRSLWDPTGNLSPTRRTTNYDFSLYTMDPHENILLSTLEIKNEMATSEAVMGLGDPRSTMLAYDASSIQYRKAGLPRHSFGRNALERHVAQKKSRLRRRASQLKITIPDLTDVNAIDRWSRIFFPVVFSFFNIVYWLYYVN
T3 sequence (Q9Y5N1 whole entry): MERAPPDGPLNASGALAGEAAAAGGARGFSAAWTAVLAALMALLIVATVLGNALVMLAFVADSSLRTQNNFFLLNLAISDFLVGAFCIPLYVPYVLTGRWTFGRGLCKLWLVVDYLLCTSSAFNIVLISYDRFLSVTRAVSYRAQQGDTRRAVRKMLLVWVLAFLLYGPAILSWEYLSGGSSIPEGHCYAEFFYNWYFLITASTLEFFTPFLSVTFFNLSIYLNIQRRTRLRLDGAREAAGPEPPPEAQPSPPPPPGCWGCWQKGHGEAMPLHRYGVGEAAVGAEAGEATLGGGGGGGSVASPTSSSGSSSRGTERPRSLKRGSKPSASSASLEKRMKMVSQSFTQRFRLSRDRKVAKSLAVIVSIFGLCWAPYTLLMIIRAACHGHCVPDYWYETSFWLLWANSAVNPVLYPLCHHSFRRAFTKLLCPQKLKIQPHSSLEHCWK

SMILES: COc1cc2c(Nc3ccc(Cl)c(Cl)c3F)ncnc2cc1OC[C@@H]1C[C@@H]2CN(C)C[C@@H]2C1 [XL-647, N-(3,4-dichloro-2-fluorophenyl)-7-({[(3aR,5r,6aS)-2-methyloctahydrocyclopenta[c]pyrrol-5-yl]methyl}oxy)-6-(methyloxy)quinazolin-4-amine]
- IC50 [1]: 2650 nM
- Inhibition, 10 μM XL-647 ([1]; 10 μM): 87.74%
- Inhibition, 10 μM XL-647 (Melatonin, Non-selective): 0.18%
- inhibition at 10 µM [2]: 1.27%
- ED50 [3]: 17 mg/kg
- IC50 (EGFR): 0.3 ± 0.1 nM
- decrease of CT-CI (bpk mice; 7.5 mg/kg q.d.): 25%
- decrease of KW/BW (bpk mice; 7.5 mg/kg q.d.): 21.5%
- decrease of creatinine (bpk mice; 7.5 mg/kg q.d.): 8.3%
- improvement of MUCA (bpk mice; 7.5 mg/kg q.d.): 20.1%
- reduction of kidney weight (bpk mice; 7.5 mg/kg q.d.): 21.8%
- decrease of BUN (bpk mice; 7.5 mg/kg q.d., 7.5 mg/kg): 42%
- BUN (bpk mice; 7.5 mg/kg/day, PN Day 21): 63.43 mg/dL
- CT-CI (bpk mice; 7.5 mg/kg/day, PN Day 21): 3.60
- Creatinine (bpk mice; 7.5 mg/kg/day, PN Day 21): 0.44 mg/dL
- MUCA (bpk mice; 7.5 mg/kg/day, PN Day 21): 560.0 mOsmol
- Kidney Weight (bpk mice; [6]): 1.61 ± 0.23 g
- Kidney/Body weight (bpk mice; [6]): 15.34±1.26%
- Kidney Weight (bpk mice; [7]): 1.61 g
- Kidney/Body weight (bpk mice; [7]): 15.34%
- decrease of BUN (bpk mice; 15 mg/kg q.d.): 60.5%
- decrease of CT-CI (bpk mice; 15 mg/kg q.d.): 45.8%
- decrease of creatinine (bpk mice; 15 mg/kg q.d.): 25%
- improvement of MUCA (bpk mice; 15 mg/kg q.d.): 66.2%
- reduction of kidney weight (bpk mice; 15 mg/kg q.d.): 40.3%
- BUN (bpk mice; 15 mg/kg/day, PN Day 21): 43.20 mg/dL
- CT-CI (bpk mice; 15 mg/kg/day, PN Day 21): 2.60
- Creatinine (bpk mice; 15 mg/kg/day, PN Day 21): 0.36 mg/dL
- Kidney/Body weight (bpk mice; 15 mg/kg/day, PN Day 21): 12.36%
- MUCA (bpk mice; 15 mg/kg/day, PN Day 21): 775.0 mOsmol
- Kidney Weight (bpk mice; 15 mg/kg/day, PN Day 21, 15 mg/kg/day): 1.28 ± 0.09 g
- Kidney Weight (bpk mice; 15 mg/kg/day, PN Day 21, listed as PRIM-001, 15 mg/kg/day): 1.28 g
- inhibition at 10 µM (Histamine, H3): 38.6%
- clinical benefit rate (PR+SD) ([4]; 38 evaluable): 71%
- subjects with PR ([4]; of 38 evaluable): 10 subjects
- subjects with SD lasting 3 months or more ([4]; of 38 evaluable): 17 subjects
- Inhibition, 10 μM XL-647 (Galanin, Non-Selective): 1.57%
- Single Dose Duration of Action (100 mg/kg, >50% inhibition) (p-Y-HER2/ErbB2): >72 h
- IC50 (p-Y-HER2/ErbB2; in vivo, read-out: Estimated IC50 (plasma concentration)): 3600 nM
- inhibition at 10 µM [5]: 7.34%
- Inhibition, 10 μM XL-647 (Serotonin, Non-selective): 24.52%
